Measured values reported in patent US20210145801A1, “THERAPY FOR PROTEIN MISFOLDING DISEASE” (WREN THERAPEUTICS LIMITED, priority 2018, published 2021).

Target: T1, Aβ42 (Homo sapiens, UniProt P05067)
T1 construct: made in house; host or cells: E. coli BL21 Gold (DE3)
Experiment: ThT kinetic assay of Aβ42 aggregation (unseeded)
Assay type: biochemical
Conditions: 2 μM Aβ42; 5× drug:protein concentration
Source text: The recombinant Aβ(M1-42) peptide ([…]-SNKGAIIGLMVGGVVIA [SEQ ID NO: 1]), here called Aβ42, was expressed in the E. coli BL21 Gold (DE3) strain (Stratagene, Calif., U.S.A.) and purified as described previously with slight modifications. Briefly, the purification procedure involved sonication of E. coli cells, dissolution of inclusion bodies in 8 M urea, and ion exchange in batch mode on diethylaminoethyl cellulose resin and lyophylization. The lyophilized fractions were further purified using Superdex 75 HR 26/60 column (GE Healthcare, Buckinghamshire, U.K.) and eluates were analyzed using SDS-PAGE for the presence of the desired protein product. The fractions containing the recombinant protein were combined, frozen using liquid nitrogen, and lyophilized again.
Except for Netoglitazone, which was custom synthesised by GVK BIO, all small molecules were purchased with a purity greater than 99%. Small molecules were first solubilized in 100% DMSO to a concentration of 5 mM, and then diluted in the peptide solution to reach a final DMSO concentration of maximum 1-3%. We verified that the addition of DMSO in the reaction mixture has no effect on Aβ42 aggregation.
Solutions of monomeric peptides were prepared by dissolving the lyophilized Aβ42 peptide in 6 M GuHCl. Monomeric forms were purified from potential oligomeric species and salt using a Superdex 75 10/300 GL column (GE Healthcare) at a flowrate of 0.5 mL/min, and were eluted in 20 mM sodium phosphate buffer, pH 8 supplemented with 200 μM EDTA and 0.02% NaN3. The centre of the peak was collected, and the peptide concentration was determined from the absorbance of the integrated peak area using ε280=1490 L mol^−1 cm^−1. The obtained monomer was diluted with buffer to the desired concentration and supplemented with 20 μM Thioflavin T (ThT) from a 1 mM stock. All samples were prepared in low binding Eppendorf tubes on ice using careful pipetting to avoid introduction of air bubbles. Each sample was then pipetted into multiple wells of a 96-well half-area, low-binding, clear bottom and PEG coating plate (Corning 3881), 80 μL per well. Aβ42 kinetics have been performed in the absence or the presence of Netoglitazone, Mitoglitazone, Rosiglotazone, Rivoglitazone, Pioglitazone, Ciglitazone, Englitazone, Darglitazone, Troglitazone and Balaglitazone.
The time evolution of the total fibril mass concentration is described as a function only of the initial conditions and the rate constants of the system by the integrated rate law given by Eq. (54) in Cohen et al., J Chem Phys 135, 065106, 2011.
These are related to the rate of formation of new aggregates through primary pathways λ=√{square root over (2k+knm(0)^n^c)} and through secondary pathways κ=√{square root over (2k+k2m(0)^n^2^+1)}, where the initial concentration of soluble monomers is denoted by m(0), nc and n2 describe the dependencies of the primary and secondary pathways on the monomer concentration (nc=n2=2 for Aβ42), and kn, k+ and k2 are the rate constants of the primary nucleation, elongation and secondary nucleation, respectively (Cohen et al., Proc Natl Acad Sci USA, 110(24), 9758-63, 2013).
Inhibitors can interfere with the aggregation process by inhibiting one or more of the individual microscopic steps.

T1 sequence (P05067 671-713): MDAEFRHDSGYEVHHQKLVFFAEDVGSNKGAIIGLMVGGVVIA

| Compound | Delay of Aβ42 aggregation |
| --- | --- |
| Cn1c(COc2ccc(CC3SC(=O)NC3=O)cc2)nc2ccccc2c1=O (centres unmarked) [Balaglitazone] | little to no delay of Aβ42 aggregation was observed |
| CCc1ccc(C(=O)COc2ccc(CC3SC(=O)NC3=O)cc2)nc1 (centres unmarked) [Mitoglitazone] | little to no delay of Aβ42 aggregation was observed |
| O=C1NC(=O)C(Cc2ccc3c(c2)CC[C@H](Cc2ccccc2)O3)S1 (some centres unmarked) [Englitazone] | significantly delayed aggregation |
| COc1ccc2nc(COc3ccc(CC4SC(=O)NC4=O)cc3)n(C)c2c1 (centres unmarked) [Rivoglitazone] | little to no delay of Aβ42 aggregation was observed |
| Cc1oc(-c2ccccc2)nc1CCC(=O)c1ccc(CC2SC(=O)NC2=O)cc1 (centres unmarked) [Darglitazone] | observed to delay Aβ42 aggregation |
